Reference: US9932637B2, “Genetic polymorphisms associated with cardiovascular disorders and drug response, methods of detection and uses thereof” (CELERA CORPORATION, priority 2003, dated 2018)

System: patients with prior myocardial infarction (CARE study)
Experiment: CARE: association of SNPs with pravastatin treatment in RMI prevention (genotypic RR in placebo and statin strata; Table 10)
Format: in vivo, human
Description: In order to identify genetic markers associated with acute coronary events (e.g. MI, stroke, unstable angina, congestive heart failure, etc.) or response to statin treatment for the prevention of coronary events, samples from the Cholesterol and Recurrent Events (CARE) study (a randomized multicentral double-blinded trial on secondary prevention of acute coronary events with pravastatin) (Sacks et al., 1991, Am. J. Cardiol. 68: 1436-1446) were genotyped. A well-documented myocardial infarction (MI) was one of the enrollment criteria for entry into the CARE study. Patients were enrolled in the CARE trial from 80 participating study centers. […] Patients were randomized to receive either 40 mg of pravastatin once daily or a matching placebo. The primary endpoint of the trial was death from coronary heart disease and the median duration of follow-up was 5.0 years (range, 4.0 to 6.2 years). […] Secondary endpoints of other related cardiovascular or metabolic disease events, and changes in clinical variables were also recorded in pravastatin-treated and placebo groups. All individuals included in the study had signed a written informed consent form and the study protocol was approved by the respective Institutional Review Boards (IRBs).
For genotyping SNPs in CARE patient samples, DNA was extracted from blood samples using conventional DNA extraction methods such as the QIA-amp kit from Qiagen. Genotypes were obtained on an ABI PRISM® 7900HT Sequence Detection PCR system (Applied Biosystems, Foster City, Calif.) by kinetic allele-specific PCR, similar to the method described by Germer et al. (Germer S., Holland M. J., Higuchi R. 2000, Genome Res. 10: 258-266).
For statistical analysis of association of SNPs with pravastatin treatment in RMI prevention (Table 10), effect sizes were estimated through genotypic RR, including 95% CIs. Homogeneity of Cochran-Mantel-Haenszel odds ratios was tested across pravastatin and placebo strata using the Wald test. […] (this adjustment supports independence of the SNP association from conventional risk factors). This table also provides the frequency data for the at risk allele in the columns labeled “Case Y PRIMER ALLELE Nucleotide Frequency” and “Control Y PRIMER ALLELE Nucleotide Frequency”. Allele frequencies for the cases and controls ≤0.49 indicate that the at-risk allele is the minor allele. Allele frequencies ≥0.50 indicate that the at-risk allele is the major allele. An example of a SNP associated with increased risk for an adverse cardiovascular event in the placebo group using a dominant genotypic test is hCV25644901. […] However, this same SNP was protective in the statin treated group with a RR of 0.58. An example of a SNP associated with an adverse cardiovascular event in the placebo group using the allelic association test is hCV16044337 with a RR of 1.87 for the homozygous AA genotype. This same genotype was protective in the statin treated group with a RR of 0.56.

Q: What does the source list for CC[C@H](C)C(=O)O[C@H]1C[C@H](O)C=C2C=C[C@H](C)[C@H](CC[C@@H](O)C[C@@H](O)CC(=O)O)[C@H]21 [pravastatin]?
A: RR (relative risk for RMI) (ABCA1 hCV2741051, Het(TC) stratum, Statin vs Placebo): 0.92; RR (relative risk for RMI) (ABCA1 hCV2741051, Maj Hom(CC) stratum, Statin vs Placebo): 0.59; RR (relative risk for RMI) (ABCA1 hCV2741051, Min Hom(TT) stratum, Statin vs Placebo): 1.25; RR (relative risk for RMI) (ABCA1 hCV2741051, Statin stratum, het(TC) vs. ref(CC)): 1.09; RR (relative risk for RMI) (ABCA1 hCV2741051, Statin stratum, hom(TT) vs. ref(CC)): 1.14; RR (relative risk for RMI) (ABCA1 hCV2741083, Het(TC) stratum, Statin vs Placebo, covars none): 1.51; RR (relative risk for RMI) (ABCA1 hCV2741083, Maj Hom(TT) stratum, Statin vs Placebo, covars none): 0.61; RR (relative risk for RMI) (ABCA1 hCV2741083, Min Hom(CC) stratum, Statin vs Placebo, covars none): 1.36; RR (relative risk for RMI) (ABCA1 hCV2741083, Statin stratum, het(TC)vs. ref(TT), covars none): 1.29; RR (relative risk for RMI) (ABCA1 hCV2741083, Statin stratum, hom (CC)vs. ref(TT), covars none): 1.00; RR (relative risk for RMI) (ATF6 hCV25631989, Het (TC) stratum, Statin vs Placebo): 2.43; RR (relative risk for RMI) (ATF6 hCV25631989, Maj Hom (CC) stratum, Statin vs Placebo): 0.66; RR (relative risk for RMI) (ATF6 hCV25631989, Statin stratum, het(TC) vs. ref (CC)): 1.53; RR (relative risk for RMI) (CYBA hCV2038, Het(AG) stratum, Statin vs Placebo, covars hx_smoke): 0.74; RR (relative risk for RMI) (CYBA hCV2038, Maj Hom(GG) stratum, Statin vs Placebo, covars hx_smoke): 0.55; RR (relative risk for RMI) (CYBA hCV2038, Min Hom(AA) stratum, Statin vs Placebo, covars hx_smoke): 1.38; RR (relative risk for RMI) (CYBA hCV2038, Statin stratum, het(AG) vs. ref(GG), covars hx_smoke): 1.40; RR (relative risk for RMI) (CYBA hCV2038, Statin stratum, hom(AA) vs. ref(GG), covars hx_smoke): 2.02; RR (relative risk for RMI) (EDG3 hCV25610470, Het(GA) stratum, Statin vs Placebo, covars HX_SMOKE): 0.22; RR (relative risk for RMI) (EDG3 hCV25610470, Maj Hom(GG) stratum, Statin vs Placebo, covars HX_SMOKE): 0.77; RR (relative risk for RMI) (EDG3 hCV25610470, Min Hom(AA) stratum, Statin vs Placebo, covars HX_SMOKE): 1.10; RR (relative risk for RMI) (EDG3 hCV25610470, Statin stratum, het(GA) vs. ref(GG), covars HX_SMOKE): 0.37; RR (relative risk for RMI) (F7 hCV783184, Het(TG) stratum, Statin vs Placebo): 1.10; RR (relative risk for RMI) (F7 hCV783184, Maj Hom(GG) stratum, Statin vs Placebo): 0.64; RR (relative risk for RMI) (F7 hCV783184, Min Hom(TT) stratum, Statin vs Placebo): 2.59; RR (relative risk for RMI) (F7 hCV783184, Statin stratum, het (TG) vs. ref(GG)): 1.28; RR (relative risk for RMI) (F7 hCV783184, Statin stratum, hom(TT) vs. ref(GG)): 1.65; RR (relative risk for RMI) (FCAR hCV7841642, Het(GA) stratum, Statin vs Placebo): 0.32; RR (relative risk for RMI) (FCAR hCV7841642, Maj Hom(GG) stratum, Statin vs Placebo): 0.82; RR (relative risk for RMI) (FCAR hCV7841642, Min Hom(AA) stratum, Statin vs Placebo): 1.33; RR (relative risk for RMI) (FCAR hCV7841642, Statin stratum, het(GA) vs. ref(GG)): 0.60; RR (relative risk for RMI) (FCAR hCV7841642, Statin stratum, hom (AA)vs. ref(GG)): 1.38; RR (relative risk for RMI) (FN1 hCV9506149, Het(TA) stratum, Statin vs Placebo): 0.90; RR (relative risk for RMI) (FN1 hCV9506149, Maj Hom(AA) stratum, Statin vs Placebo): 0.58; RR (relative risk for RMI) (FN1 hCV9506149, Min Hom(TT) stratum, Statin vs Placebo): 1.10; RR (relative risk for RMI) (FN1 hCV9506149, Statin stratum, het(TA) vs. ref(AA)): 1.15; RR (relative risk for RMI) (FN1 hCV9506149, Statin stratum, hom(TT) vs. ref(AA)): 1.72; RR (relative risk for RMI) (HLA-DPB1 hCV8851085, Het(GA) stratum, Statin vs Placebo, covars hx_smoke): 0.87; RR (relative risk for RMI) (HLA-DPB1 hCV8851085, Maj Hom(GG) stratum, Statin vs Placebo, covars hx_smoke): 0.58; RR (relative risk for RMI) (HLA-DPB1 hCV8851085, Min Hom(AA) stratum, Statin vs Placebo, covars hx_smoke): 2.19; RR (relative risk for RMI) (HLA-DPB1 hCV8851085, Statin stratum, het (GA)vs. ref(GG), covars hx_smoke): 1.40; RR (relative risk for RMI) (HLA-DPB1 hCV8851085, Statin stratum, hom(AA) vs. ref(GG), covars hx_smoke): 1.97; RR (relative risk for RMI) (HSPG2 hCV1603656, Het(TC) stratum, Statin vs Placebo, covars hx_smoke): 0.42; RR (relative risk for RMI) (HSPG2 hCV1603656, Maj Hom (CC) stratum, Statin vs Placebo, covars hx_smoke): 0.80; RR (relative risk for RMI) (HSPG2 hCV1603656, Statin stratum, het (TC)vs. ref(CC), covars hx_smoke): 0.65; RR (relative risk for RMI) (HSPG2 hCV1603692, Het(TC) stratum, Statin vs Placebo, covars none): 0.37; RR (relative risk for RMI) (HSPG2 hCV1603692, Maj Hom (CC) stratum, Statin vs Placebo, covars none): 0.79; RR (relative risk for RMI) (HSPG2 hCV1603692, Statin stratum, het (TC)vs. ref(CC), covars none): 0.65; RR (relative risk for RMI) (HSPG2 hCV1603697, Het(TC) stratum, Statin vs Placebo, covars none): 0.37; RR (relative risk for RMI) (HSPG2 hCV1603697, Maj Hom (CC) stratum, Statin vs Placebo, covars none): 0.80; RR (relative risk for RMI) (HSPG2 hCV1603697, Statin stratum, het (TC)vs. ref(CC), covars none): 0.65
